From ChEMBL document CHEMBL1151757, “Synthesis, radiosynthesis, and biological evaluation of fluorine-18-labeled 2beta-carbo(fluoroalkoxy)-3beta-(3'-((Z)-2-haloethenyl)phenyl)nortropanes: candidate radioligands for in vivo imaging of the serotonin transporter with positron emission tomography” (J Med Chem, 2008)

Experiments:
[1] = tested on: Medulla; assay: Drug uptake in anesthetized cynomolgus monkey brain medulla after 105 mins postinjection; assay type: ADME, organism-based, Macaca fascicularis; details: in vivo, 1.75 h
[2] = tested on: Pons; assay: Drug uptake in anesthetized cynomolgus monkey brain pons after 18.5 mins postinjection; assay type: ADME, organism-based, Macaca fascicularis; details: in vivo
[3] = tested on: Midbrain; assay: Drug uptake in anesthetized cynomolgus monkey brain midbrain after 0.5 mins postinjection; assay type: ADME, organism-based, Macaca fascicularis; set-up: unit not given here; details: in vivo
[4] = tested on: Putamen; assay: Drug uptake in anesthetized cynomolgus monkey brain putamen after 135 mins postinjection; assay type: ADME, organism-based, Macaca fascicularis; details: in vivo, 2.25 h
[5] = Ratio of drug uptake in caudate to cerebellum in anesthetized cynomolgus monkey after 135 mins postinjection; assay type: ADME, organism-based, Macaca fascicularis; details: in vivo, 2.25 h
[6] = Ratio of drug uptake in occipital lobe to cerebellum in anesthetized cynomolgus monkey after 135 mins postinjection; assay type: ADME, organism-based, Macaca fascicularis; details: in vivo, 2.25 h
[7] = Ratio of drug uptake in frontal lobe to cerebellum in anesthetized cynomolgus monkey after 35 mins postinjection; assay type: ADME, organism-based, Macaca fascicularis; details: in vivo
[8] = tested on: Medulla; assay: Drug uptake in anesthetized cynomolgus monkey brain medulla after 22.5 mins postinjection; assay type: ADME, organism-based, Macaca fascicularis; details: in vivo, 0.375 h
[9] = tested on: Caudate; assay: Drug uptake in anesthetized cynomolgus monkey brain caudate after 115 mins postinjection; assay type: ADME, organism-based, Macaca fascicularis, Caudate nucleus; details: in vivo
[10] = Drug uptake in anesthetized cynomolgus monkey brain occipital lobe after 125 mins postinjection; assay type: ADME, organism-based, Macaca fascicularis; details: in vivo
[11] = tested on: Medulla; assay: Drug uptake in anesthetized cynomolgus monkey brain medulla after 9.5 mins postinjection; assay type: ADME, organism-based, Macaca fascicularis; details: in vivo
[12] = tested on: Midbrain; assay: Drug uptake in anesthetized cynomolgus monkey brain midbrain after 6.5 mins postinjection; assay type: ADME, organism-based, Macaca fascicularis; set-up: unit not given here; details: in vivo
[13] = Drug uptake in anesthetized cynomolgus monkey brain cerebellum after 27.5 mins postinjection; assay type: ADME, organism-based, Macaca fascicularis; details: in vivo
[14] = Ratio of drug uptake in caudate to cerebellum in anesthetized cynomolgus monkey after 155 mins postinjection; assay type: ADME, organism-based, Macaca fascicularis; details: in vivo
[15] = Ratio of drug uptake in midbrain to cerebellum in anesthetized cynomolgus monkey after 225 mins postinjection; assay type: ADME, organism-based, Macaca fascicularis; details: in vivo, 3.75 h
[16] = Drug uptake in anesthetized cynomolgus monkey brain occipital lobe after 135 mins postinjection; assay type: ADME, organism-based, Macaca fascicularis; details: in vivo, 2.25 h
[17] = Drug uptake in anesthetized cynomolgus monkey brain frontal lobe after 12.5 mins postinjection; assay type: ADME, organism-based, Macaca fascicularis; details: in vivo
[18] = tested on: Pons; assay: Drug uptake in anesthetized cynomolgus monkey brain pons after 105 mins postinjection; assay type: ADME, organism-based, Macaca fascicularis; details: in vivo, 1.75 h
[19] = tested on: Caudate; assay: Drug uptake in anesthetized cynomolgus monkey brain caudate after 45 mins postinjection; assay type: ADME, organism-based, Macaca fascicularis, Caudate nucleus; details: in vivo, 0.75 h
[20] = Drug uptake in anesthetized cynomolgus monkey brain occipital lobe after 205 mins postinjection; assay type: ADME, organism-based, Macaca fascicularis; details: in vivo
[21] = tested on: Medulla; assay: Drug uptake in anesthetized cynomolgus monkey brain medulla after 6.5 mins postinjection; assay type: ADME, organism-based, Macaca fascicularis; details: in vivo
[22] = tested on: Putamen; assay: Drug uptake in anesthetized cynomolgus monkey brain putamen after 22.5 mins postinjection; assay type: ADME, organism-based, Macaca fascicularis; set-up: unit not given here; details: in vivo, 0.375 h
[23] = tested on: Putamen; assay: Drug uptake in anesthetized cynomolgus monkey brain putamen after 4.5 mins postinjection; assay type: ADME, organism-based, Macaca fascicularis; set-up: unit not given here; details: in vivo, 0.075 h
[24] = tested on: Caudate; assay: Drug uptake in anesthetized cynomolgus monkey brain caudate after 35 mins postinjection; assay type: ADME, organism-based, Macaca fascicularis, Caudate nucleus; details: in vivo
[25] = tested on: Medulla; assay: Drug uptake in anesthetized cynomolgus monkey brain medulla after 3.5 mins postinjection; assay type: ADME, organism-based, Macaca fascicularis; details: in vivo
[26] = tested on: Medulla; assay: Drug uptake in anesthetized cynomolgus monkey brain medulla after 215 mins postinjection; assay type: ADME, organism-based, Macaca fascicularis; details: in vivo
[27] = Drug uptake in anesthetized cynomolgus monkey brain cerebellum after 95 mins postinjection; assay type: ADME, organism-based, Macaca fascicularis; details: in vivo
[28] = Ratio of drug uptake in medulla to cerebellum in anesthetized cynomolgus monkey after 195 mins postinjection; assay type: ADME, organism-based, Macaca fascicularis; details: in vivo, 3.25 h
[29] = tested on: Medulla; assay: Drug uptake in anesthetized cynomolgus monkey brain medulla after 135 mins postinjection; assay type: ADME, organism-based, Macaca fascicularis; details: in vivo, 2.25 h
[30] = tested on: Caudate; assay: Drug uptake in anesthetized cynomolgus monkey brain caudate after 18.5 mins postinjection; assay type: ADME, organism-based, Macaca fascicularis, Caudate nucleus; details: in vivo
[31] = tested on: Midbrain; assay: Drug uptake in anesthetized cynomolgus monkey brain midbrain after 145 mins postinjection; assay type: ADME, organism-based, Macaca fascicularis; details: in vivo
[32] = tested on: Pons; assay: Drug uptake in anesthetized cynomolgus monkey brain pons after 12.5 mins postinjection; assay type: ADME, organism-based, Macaca fascicularis; details: in vivo
[33] = tested on: Putamen; assay: Drug uptake in anesthetized cynomolgus monkey brain putamen after 155 mins postinjection; assay type: ADME, organism-based, Macaca fascicularis; details: in vivo
[34] = Ratio of drug uptake in midbrain to cerebellum in anesthetized cynomolgus monkey after 9.5 mins postinjection; assay type: ADME, organism-based, Macaca fascicularis; details: in vivo

Compound `O=C(OCCC[18F])C1C2CCC(CC1c1cccc(/C=C\I)c1)N2` (centres undefined) has a Drug uptake [1] of 4.34, a Drug uptake [2] of 4.2 and a Drug uptake [3] of 0.01. The Drug uptake [4] was 4.16, the Ratio [5] was 1.3 and the Ratio [6] was 1.1. For the same compound, the Ratio [7] was 0.6, the Drug uptake [8] was 4.94 and the Drug uptake [9] was 3.61. The Drug uptake [10] was 2.96, the Drug uptake [11] was 3.97 and the Drug uptake [12] was 3.41. For the same compound, the Drug uptake [13] was 4.8, the Ratio [14] was 1.4 and the Ratio [15] was 2. The Drug uptake [16] was 2.82, the Drug uptake [17] was 2.24 and the Drug uptake [18] was 4.01. It also gave a Drug uptake [19] of 4.05, a Drug uptake [20] of 2.3 and a Drug uptake [21] of 3.75. It also gave a Drug uptake [22] of 4.71, a Drug uptake [23] of 2.31 and a Drug uptake [24] of 3.9. For the same compound, the Drug uptake [25] was 2.2, the Drug uptake [26] was 3.66 and the Drug uptake [27] was 3.46. It also gave a Ratio [28] of 1.7, a Drug uptake [29] of 4.5 and a Drug uptake [30] of 3.38. It also gave a Drug uptake [31] of 4.38, a Drug uptake [32] of 3.49 and a Drug uptake [33] of 3.8. It also gave a Ratio [34] of 0.9.
